Measured values as given in the supplement of paper PMC10307832.

Key:
Experiment in all cases: relative viability (nuclei count vs DMSO), 5 days (fraction); higher = more cells survive
Mirin + Luminespib = compound: N=C1NC(=O)/C(=C/c2ccc(O)cc2)S1 [Mirin] + CCNC(=O)c1noc(-c2cc(C(C)C)c(O)cc2O)c1-c1ccc(CN2CCOCC2)cc1 [Luminespib] (partner 0.01 µM)
Summary of the method: (§1)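 Relative viability divides the nuclei count in treated wells by that in vehicle wells. Lung cancer cell lines were seeded in 1536-well plates, dosed by pin tool the next day, and fixed and stained after 5 days in one step with final 0.05% Triton X-100, 1% formaldehyde and 1 ug/ml Hoechst. Dosing was a single drug or a fixed anchor-drug dose plus five library-drug doses (not always all listed) in √10 steps, and values are medians of duplicate plates imaged at 4×.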

Mirin + Pemetrexed = compound: N=C1NC(=O)/C(=C/c2ccc(O)cc2)S1 [Mirin] + Nc1nc2[nH]cc(CCc3ccc(C(=O)N[C@@H](CCC(=O)O)C(=O)O)cc3)c2c(=O)[nH]1 [Pemetrexed] (partner 0.2 µM)
Summary of the method: as §1

Mirin + Crizotinib = compound: N=C1NC(=O)/C(=C/c2ccc(O)cc2)S1 [Mirin] + C[C@@H](Oc1cc(-c2cnn(C3CCNCC3)c2)cnc1N)c1c(Cl)ccc(F)c1Cl [Crizotinib] (partner 1 µM)
Summary of the method: as §1

[1] = compound: CCn1c(-c2nonc2N)nc2cnc(Oc3cccc(NC(=O)c4ccc(OCCN5CCOCC5)cc4)c3)cc21 + C[C@@H](Oc1cc(-c2cnn(C3CCNCC3)c2)cnc1N)c1c(Cl)ccc(F)c1Cl [Crizotinib] (partner 1 µM)
Summary of the method: as §1

Cell Line | relative viability (Mirin + Luminespib; first compound 0.25 µM) | relative viability (Mirin + Luminespib; first compound 2.5 µM) | relative viability (Mirin + Luminespib; first compound 7.906 µM) | relative viability (Mirin + Luminespib; first compound 25 µM) | relative viability (Mirin + Pemetrexed; first compound 0.25 µM) | relative viability (Mirin + Pemetrexed; first compound 0.7906 µM) | relative viability (Mirin + Pemetrexed; first compound 2.5 µM) | relative viability (Mirin + Pemetrexed; first compound 7.906 µM) | relative viability (Mirin + Pemetrexed; first compound 25 µM) | relative viability (Mirin + Crizotinib; first compound 0.25 µM) | relative viability (Mirin + Crizotinib; first compound 0.7906 µM) | relative viability (Mirin + Crizotinib; first compound 2.5 µM) | relative viability (Mirin + Crizotinib; first compound 7.906 µM) | relative viability (Mirin + Crizotinib; first compound 25 µM) | relative viability ([1]; first compound 0.04 µM) | relative viability ([1]; first compound 0.1265 µM) | relative viability ([1]; first compound 1.265 µM) | relative viability ([1]; first compound 4 µM) | relative viability (Mirin + Luminespib; first compound 0.7906 µM) | relative viability ([1]; first compound 0.4 µM)
NCI-H1993 | 0.777 | 0.778 | 0.729 | 0.734 | 0.625 | 0.633 | 0.578 | 0.541 | 0.584 | 0.757 | 0.82 | 0.845 | 0.926 | 0.788 | 0.991 | 0.864 | 0.75 | 0.742 |  | 
NCI-H2009 | 0.983 | 1.02 | 0.925 | 1.07 | 1.05 | 1.11 | 1.01 | 0.964 | 1.16 | 1.08 | 1.11 | 1.01 | 0.853 | 1.16 | 0.987 | 0.847 | 0.41 | 0.258 | 1.15 | 0.754
NCI-H2023 | 0.746 | 0.804 | 0.763 | 0.64 | 0.254 | 0.258 | 0.218 | 0.247 | 0.156 | 0.658 | 0.665 | 0.585 | 0.692 | 0.567 | 0.737 | 0.736 | 0.25 | 0.194 | 0.862 | 0.593
NCI-H2085 | 0.422 | 0.46 | 0.473 | 0.453 | 0.919 | 1.03 | 0.932 | 0.925 | 0.932 | 0.798 | 0.853 | 0.878 | 0.704 | 0.923 | 0.988 | 0.797 | 0.741 | 0.72 | 0.343 | 0.661
NCI-H2087 | 0.184 | 0.169 | 0.161 | 0.158 | 0.69 | 0.715 | 0.66 | 0.678 | 0.708 | 0.898 | 1.08 | 0.849 | 0.771 | 1.16 |  | 0.591 | 0.522 | 0.336 | 0.135 | 0.678
NCI-H2126 | 0.86 | 0.934 | 0.9 | 0.898 | 0.754 | 0.574 | 0.758 | 0.855 | 0.686 | 1.02 | 1.07 | 0.981 | 0.994 | 1.21 | 1.05 | 1.05 | 1.07 | 1.02 | 0.881 | 1.04
NCI-H2170 | 0.828 | 0.934 | 0.693 | 0.663 | 0.249 | 0.282 | 0.268 | 0.263 | 0.28 | 1.19 | 1.22 | 1.37 | 1.15 | 0.959 | 1.03 | 1.21 | 1.17 | 1.26 | 0.656 | 1.15
NCI-H2228 | 0.144 | 0.159 | 0.129 | 0.114 | 0.394 | 0.301 | 0.291 | 0.315 | 0.364 | 0.481 | 0.474 | 0.462 | 0.469 | 0.488 | 0.468 | 0.385 | 0.432 | 0.471 | 0.166 | 0.49
